Experimental data as given in patent publication US8552064B2, “Suramin and derivatives thereof as topical microbicide and contraceptive” (Eastern Virginia Medical School, priority 2005, dated 2013).

Tests used:
[1] = tested on: sperm penetration in cervical mucus; assay: Modified One End Test (MOET), sperm penetration in bovine cervical mucus; format: cell-based
Excerpt: Bovine cervical mucus was obtained from Humagen (Charlottesville, Va.) in the form of prepackaged flat capillary tubes (Penetrak®), kept frozen and thawed right prior to the experiment. The Modified One End Test (MOET) [(described in Doncel G. F., in “Barrier Contraceptives”, Wiley-Liss, Mauck C. K. et al. eds., pp. 147-162 (1994)] was used to determine the effect of compounds, such as suramin sodium described herein, on sperm penetration in cervical mucus. Each of the test compositions containing the compound to be tested were diluted in a saline solution, i.e., at 9 grams of NaCl per liter of water. Tubes of cervical mucus were broken open. The open end was placed in a container containing the test compound in saline. The test compound was allowed to diffuse for 30 minutes through the tube. A semen sample, obtained from normal healthy donors, was then diluted with a buffer solution to 60 million motile sperm per milliliter and mixed with the test compound sample (i.e., suramin sodium). The tube containing the test compound sample was then re-inserted into the container containing the mixed solution and stored in an incubator at 37° C. in an atmosphere of 5 percent carbon dioxide in air for 60 minutes. The container and tube were then removed from the incubator and the tube was visually analyzed under a microscope for the migration of motile vanguard sperm through the tube. The results are expressed as percentage of migration as compared to control samples. In the control samples, the tubes were incubated with saline containing no compound. […]

sperm = assay: Sperm progressive motility dose-response and time studies, CASA; format: cell-based, human; details: 1-10,000 μg/mL or 5-0.07 mM

Compound	MOET % CTL ([1]; 6.25 mg/ml)	MOET % CTL ([1]; 12.5 mg/ml)	MOET % CTL ([1]; 25 mg/ml)	inhibition of sperm penetration in MOET ([1]; 50 mg/mL (5%))	MOET % CTL ([1]; 50 mg/ml)	MOET % CTL ([1]; 30 ug/ml)	blocking of sperm penetration ([1]; 300 μg/mL (0.03%))	MOET % CTL ([1]; 300 ug/ml)	sperm progressive motility and membrane integrity vs solvent control (sperm)
Dextran Sulfate	93.7 ± 1.7 % CTL	82.4 ± 5.2 % CTL	86.8 ± 4.4 % CTL	more inhibition than suramin sodium	56.6 ± 8.9 % CTL	–	–	–	–
CCCCCCCCCc1ccc(OCCOCCOCCOCCOCCOCCOCCOCCOCCO)cc1 [N-9, α-(4-Nonylphenyl)-ω-hydroxynona(oxyethylene)]	–	–	–	–	–	48.6 ± 6.9 % CTL	completely blocked sperm penetration	0.7 ± 0.5 % CTL	displayed its known sperm-immobilizing effects
